Reference: paper PMC4053396, “Cloning, expression and biochemical characterization of the cholesterol oxidase CgChoA from Chryseobacterium gleum” (BMC Biotechnology, 2014)

T1: CgChoA (Chryseobacterium gleum, UniProt A0ABP2IT22)
T1 construct: gene HMPREF0204_11499
T1 sequence (A0ABP2IT22 1-528): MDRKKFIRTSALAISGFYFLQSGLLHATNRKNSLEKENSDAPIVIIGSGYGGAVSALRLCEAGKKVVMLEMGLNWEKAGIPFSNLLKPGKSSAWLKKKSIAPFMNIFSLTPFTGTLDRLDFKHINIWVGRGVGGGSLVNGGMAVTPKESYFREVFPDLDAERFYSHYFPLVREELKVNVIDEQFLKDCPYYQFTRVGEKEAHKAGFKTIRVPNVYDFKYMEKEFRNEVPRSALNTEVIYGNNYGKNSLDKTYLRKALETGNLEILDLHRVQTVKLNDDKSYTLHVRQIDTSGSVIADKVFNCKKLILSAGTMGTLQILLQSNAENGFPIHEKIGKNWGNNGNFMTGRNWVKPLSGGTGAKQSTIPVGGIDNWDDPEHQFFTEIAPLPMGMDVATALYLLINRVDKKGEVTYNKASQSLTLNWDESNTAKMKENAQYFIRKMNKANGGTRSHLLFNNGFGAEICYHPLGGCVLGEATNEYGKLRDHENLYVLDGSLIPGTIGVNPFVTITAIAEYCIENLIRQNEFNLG


Columns and labels:
CgChoA = biological target: T1, CgChoA; test: UV-vis spectrum of purified protein and of supernatant after boiling; assay type: binding; details: co-purified cofactor; non-covalently bound
[1] = substrate: CC(C)CCC[C@@H](C)[C@H]1CC[C@H]2[C@@H]3CC=C4C[C@@H](O)CC[C@]4(C)[C@H]3CC[C@]12C; test: HRP-coupled H2O2 assay, initial rates; assay type: biochemical, Chryseobacterium gleum; details: cholesterol dispersed in water with taurocholate as sole surfactant, 0.011 M MOPS pH 6.75, 35°C, O2 as co-substrate

Molecule	UV-vis spectrum of purified protein and of supernatant after boiling (CgChoA)	Km [1] [µM]
Cc1cc2nc3c(=O)[nH]c(=O)nc-3n(C[C@H](O)[C@H](O)[C@H](O)COP(=O)(O)OP(=O)(O)OC[C@H]3O[C@@H](n4cnc5c(N)ncnc54)[C@H](O)[C@@H]3O)c2cc1C [FAD]	Only FAD that is non-covalently associated with the enzyme is detectable by this method	–
CgChoA (Chryseobacterium gleum ATCC 35910) (protein) MDRKKFIRTSALAISGFYFLQSGLLHATNRKNSLEKENSDAPIVIIGSGYGGAVSALRLCEAGKKVVMLEMGLNWEKAGIPFSNLLKPGKSSAWLKKKSIAPFMNIFSLTPFTGTLDRLDFKHINIWVGRGVGGGSLVNGGMAVTPKESYFREVFPDLDAERFYSHYFPLVREELKVNVIDEQFLKDCPYYQFTRVGEKEAHKAGFKTIRVPNVYDFKYMEKEFRNEVPRSALNTEVIYGNNYGKNSLDKTYLRKALETGNLEILDLHRVQTVKLNDDKSYTLHVRQIDTSGSVIADKVFNCKKLILSAGTMGTLQILLQSNAENGFPIHEKIGKNWGNNGNFMTGRNWVKPLSGGTGAKQSTIPVGGIDNWDDPEHQFFTEIAPLPMGMDVATALYLLINRVDKKGEVTYNKASQSLTLNWDESNTAKMKENAQYFIRKMNKANGGTRSHLLFNNGFGAEICYHPLGGCVLGEATNEYGKLRDHENLYVLDGSLIPGTIGVNPFVTITAIAEYCIENLIRQNEFNLG	–	500
